Values quoted from earlier work as cited in publication PMC6891286, “Towards the Development of an In vivo Chemical Probe for Cyclin G Associated Kinase (GAK)” (Molecules, 2019).

Experiments:
Parameters in all cases: method as in PMID 18936109
Settings in all cases: cited from earlier work
CYP2C9 = tested on: CYP2C9
CYP2D6 = tested on: CYP2D6
CYP1A2 = tested on: CYP1A2
CYP2B6 = tested on: CYP2B6
CYP3A4 = tested on: CYP3A4
CYP2C8 = tested on: CYP2C8
CYP2C19 = tested on: CYP2C19
CYP2A6 = tested on: CYP2A6

Structure (SMILES): Nn1nnc2ccccc21 [ABT, 1-aminobenzotriazole]
- CYP2C9 activity remaining (CYP2C9): 60%
- residual activity CYP2D6 (CYP2D6): up to 20%
- residual activity CYP1A2 (CYP1A2): up to 20%
- residual activity CYP2B6 (CYP2B6): up to 20%
- inhibition of CYP3A4 activity (CYP3A4): 100%
- residual activity CYP2C8 (CYP2C8): up to 20%
- residual activity CYP2C19 (CYP2C19): up to 20%
- inhibition of CYP2A6 activity (CYP2A6): 100%
